The results in this text go back to patent US5872141A, “Method of inhibiting cholesterol transport” (priority 1997, dated 1999).

Where two headings read alike, the source gives them in different places.

The nature of data set [1]: Uptake of micellar steroid from isolated duodenum into mucosal homogenate. The class given is in vivo, rat. As for the experimental part:
Fifty Wistar male rats were anesthetized with phenobarbital and a celiotomy was performed. The duodenum was isolated with ligatures of umbilical tape at the pylorus and the ligament of Treitz. One ml of a suspension of micelles containing ^3 H-cholesterol and ^14 C-sitosterol together with taurodeoxycholate (TDC) and dimyristic phosphatidyl choline (DMPC) (Safonova et al. 1994) were injected into the isolated duodenum of each rat. Following ten minutes incubation in the duodenum the gut loop was excised. The duodenum was opened lengthwise with iris scissors and mucosal contents were vigorously washed in two changes of 0.15M NaCl, 20 mM Hepes solution (pH 7.5). The mucosa was scraped free with a glass microscope slide and homogenized in a Virtis homogenizer for 5 minutes and 12 strokes in a Potter-Elvehjeim homogenizer as previously described (Conrad et al. 1993). […] Membranes were collected by centrifugation at 20,000×g for 20 minutes. Membrane proteins were extracted overnight at 4° C. in 1% Triton X 100 20 mM Hepes pH 7.5. The suspension was centrifuged at 20,000×g for 20 minutes. The solubilized material (70 ml) contained 70% of the radiolabeled cholesterol. The solubilized material was applied to a 240 ml column of DE-92 (Whatmann) equilibrated in 20 mM Hepes, 1% Triton X 100 pH 7.5 and eluted with a saline gradient. […]

In data set [2] the test system is IEC-6 cells. Put plainly: Specific steroid uptake from TDC-DMPC micelles by IEC-6 cells. Format: cell-based, rat. As for the experimental part:
There was less than 15% variation between duplicates. Under these conditions of incubation the monolayer remained intact.
Referring to FIG. 1, monolayers on 12 well plates of IEC-6 cells were incubated for the indicated times at 37° C. with ^3 H-cholesterol (.circle-solid.), ^14 C-sitosterol (o), or ^3 H-cholesteryl oleate (.tangle-solidup.) in TDC-DMPC micelles as described above. The concentration (75 μM) and specific activity of the steroid was the same in all three conditions. After the desired incubation period, the media was removed, the monolayers were washed, the cells solubilized, and the amount of radioactivity incorporated into the cells was determined and plotted as counts per minute in the cells. […] At 60 minutes the cholesterol content of the cells was 2.7 times the sitosterol. Since sitosterol is closely related to cholesterol both chemically and physically, this indicated a biologically specific uptake. […] Thus, the IEC-6 cells were able to absorb specifically cholesterol from the mixed micelles.

Data set [3] deals with alkaline phosphatase. To be noted: levamisole 58 mM, pH 8.5, 30 minutes at 37° C., IEC-6 homogenate, FIG. 2. The method, then:
An incubation mixture of […] was prepared containing 0.1 ml of 500 mM Hepes pH 8.5, 25 mM MgCl2, 2.5 μM ZnCl2, and 0.5 ml of homogenate [1.0 mg/ml protein as determined by BCA method (Pierce, Rockford, Ill.)]. The indicated amount of p-nitrophenyl phosphate was added and the incubation allowed to proceed for 30 minutes at 37° C. To some of the tubes levamisole (58 mM) was added. After the incubation the absorption at 412 nm was determined.

In data set [4] the test system is IEC-6 cells. The settings on record: 32 mM levamisole, 60 minutes at 37° C., 20-60% sucrose gradient, FIG. 5.
Experimental: Two petri dishes (7.5 cm) with monolayers of IEC-6 cells were grown to confluence and used for each experiment. Each plate was washed in PBS and then incubated with 3 ml of PBS containing 120 μl of cholesterol micelles. In two parallel petri dishes an identical incubation was performed but with the addition of 32 mM levamisole. After 60 minutes incubation the dishes were chilled, washed four times with cold PBS and then harvested by scraping the dishes into 8 ml of 10 mM Hepes, 10 mM NaCl pH 7.4. The cells were homogenized using a Tissue-Tearor (Biospec Products, Bartlettsville, Okla.) at full speed for 30 seconds×3. The homogenate was layered on top of a 26 ml linear sucrose gradient from 20-60% (w/w). Centrifugation was performed over 18-20 hours at 19,000 rpm with a S-20 rotor in a Sorvall RC28S (DuPont, Wilmington, Del.) centrifuge. The tubes were punched from the bottom and 1 ml fractions collected. Standard methods were used to identify the membrane fractions (Storrie & Madden 1990) utilizing p-nitrophenyl-sugars and spectrophotometric analysis.
Referring to FIG. 4, IEC-6 cells were incubated with ^3 H-cholesterol micelles for 60 minutes at 37° C., and then washed, homogenized, and separated on 20-60% sucrose gradients. The gradients were centrifuged to equilibrium. The location of various membrane fragments was determined by standard enzymatic methods (Storrie & Madden 1990). […]
In data set [5] the test system is IEC-6 cells. To be noted: increasing concentrations of levamisole, 30 minutes at 37° C., FIG. 3.
Experimental: Radioisotopes were obtained from NEN (Billerca, Mass.) and other chemicals from Sigma (St. Louis, Mo.). ^3 H-cholesterol micelles were prepared from dimyristic phosphatidyl choline (DMPC) and taurodeoxycholate (TDC) as described by others (Safanova et al. 1994). The final solution contained 2.2×10^6 cpm/ml, 0.1 μM cholesterol, 60 mM DMPC and 6.5 mM TDC. Micelles with ^14 C-sitosterol or ^3 H-cholesteryl oleate were similarly prepared using the appropriate steroid and had the same specific activity. IEC-6 cells (Quaroni et al. 1979) obtained from the American Type Culture Collection (12301 Parklawn Drive, Rockville, Md.) were grown to confluence on 12-well Corning tissue culture plates. The media was removed and the monolayers were washed with phosphate buffered saline containing calcium, magnesium, and glucose (PBS). One ml of PBS was added to each well and 40 μl of the micellar solution (for a final steroid concentration of 4 nM). After incubation at 37° C., the plates were chilled and the wells washed four times in cold PBS. Water (0.5 ml) was added, and the plates were sonicated for 15 minutes (Branson model B-220, Shelton, Conn.) and then washed in an additional 0.5 ml of water. The water lysates were combined and counted in Ready-Safe (Beckman, Fullerton, Calif.) scintillation fluid. There was less than 15% variation between duplicates. […]

As to `CC(C)CCC[C@@H](C)[C@H]1CC[C@H]2[C@@H]3CC=C4C[C@@H](O)CC[C@]4(C)[C@H]3CC[C@]12C` [cholesterol], the “total uptake into the homogenate, % of added steroid” value in data set [1] (rat, in vivo, 10 min) was determined as 16%. Also, in data set [2], the “uptake by IEC-6 cells” value was “linear for at least an hour”.
Turning to `CC[C@H](CC[C@@H](C)[C@H]1CC[C@H]2[C@@H]3CC=C4C[C@@H](O)CC[C@]4(C)[C@H]3CC[C@]12C)C(C)C` [sitosterol], the “total uptake into the homogenate, % of added steroid” value in data set [1] (rat isolated duodenum, micelles with TDC and DMPC, ten minutes incubation) is 2%. In addition, the “uptake by IEC-6 cells” value in data set [2] (37° C., TDC-DMPC micelles, FIG. 1, cholesterol ester without added pancreatic cholesterol esterase) is on record as “incorporated much less efficiently”.
`c1ccc([C@H]2CN3CCSC3=N2)cc1` [levamisole, 2,3,5,6-tetrahydro-6-phenylimidazo-[2,1-b]thiazole]: in data set [3], the “alkaline phosphatase activity inhibition (mode)” value is “competitively inhibited”. In addition, the “subcellular location of 3H-cholesterol label” value in data set [4] was “majority of the label was found in the plasma membrane fraction (P)”. Also, in data set [5], the “effect of increasing drug concentration on cholesterol uptake” value is on record as “did not result in complete inhibition of uptake”. In addition, in data set [5] (maximal inhibition), the cholesterol uptake inhibited entry was “Approximately 50%”.
`CCCCCCCC/C=C\CCCCCCCC(=O)O[C@H]1CC[C@@]2(C)C(=CC[C@H]3[C@@H]4CC[C@H]([C@H](C)CCCC(C)C)[C@@]4(C)CC[C@@H]32)C1` [Cholesterol ester, cholesteryl oleate]: in data set [2], the “uptake by IEC-6 cells” value is reported as “poorly absorbed”.
